Source: ChEMBL document CHEMBL3885861, “Open TG-GATES”

Organism: Rattus norvegicus
Assay: Open TG-GATES - Regimen: Single
Type: toxicity, organism-based, Sprague-Dawley
Parameters: regimen Single, gender Male, age 6 weeks
Settings: in vivo, po, 0 mg/kg, route gavage, dose level Control; for APTT / Bas / Eos / Fbg / Hb / Ht / Lym / MCH / MCHC / MCV / Mono / Neu / PT / Plat / RBC / Ret / WBC: tissue Blood; for KIDNEY_L / KIDNEY_R / KIDNEY_TOTAL: tissue Kidney; for LIVER: tissue Liver; for A/G / ALP / ALT / AST / BUN / CRE / Ca / Cl / DBIL / GLC / IP / K / LDH / Na / PL / RALB / TBIL / TC / TG / TP / gamma-GTP: tissue Plasma

CC(C)NNC(=O)c1ccncc1 [IPRONIAZID]
TERMINAL_BW (3 h): 208.3 g
APTT (3 h): 21.1 s
Bas (3 h): 0%
Eos (3 h): 0.6%
Fbg (3 h): 318.8 mg/dL
Hb (3 h): 13.3 g/dL
Ht (3 h): 38.7%
Lym (3 h): 82.2%
MCH (3 h): 21.3 pg
MCHC (3 h): 34.3%
MCV (3 h): 62.1 fL
Mono (3 h): 1.6%
Neu (3 h): 15%
PT (3 h): 16.4 s
Plat (3 h): 108.8 x10_4/uL
RBC (3 h): 624.6 x10_4/ul
Ret (3 h): 7.2%
WBC (3 h): 72.6 x10_2/uL
KIDNEY_L (3 h): 0.9 g
KIDNEY_R (3 h): 0.9 g
KIDNEY_TOTAL (3 h): 1.9 g
LIVER (3 h): 9.7 g
A/G (3 h): 1.3
ALP (3 h): 1798.2 IU/L
ALT (3 h): 41.4 IU/L
AST (3 h): 78.6 IU/L
BUN (3 h): 13.6 mg/dL
CRE (3 h): 0.2 mg/dL
Ca (3 h): 10.8 mg/dL
Cl (3 h): 107.6 meq/L
DBIL (3 h): 0.004 mg/dL
GLC (3 h): 190.2 mg/dL
IP (3 h): 8 mg/dL
K (3 h): 4.1 meq/L
LDH (3 h): 225 IU/L
Na (3 h): 142.4 meq/L
PL (3 h): 136.4 mg/dL
RALB (3 h): 3.1 g/dL
TBIL (3 h): 0.022 mg/dL
TC (3 h): 75.4 mg/dL
TG (3 h): 53.2 mg/dL
TP (3 h): 5.5 g/dL
gamma-GTP (3 h): 1.2 IU/L
TERMINAL_BW (6 h): 208.9 g
APTT (6 h): 23.2 s
Bas (6 h): 0%
Eos (6 h): 0.8%
Fbg (6 h): 305.8 mg/dL
Hb (6 h): 13.3 g/dL
Ht (6 h): 38.6%
Lym (6 h): 79.4%
MCH (6 h): 21.5 pg
MCHC (6 h): 34.3%
MCV (6 h): 62.5 fL
Mono (6 h): 2.4%
Neu (6 h): 16.6%
PT (6 h): 15.6 s
Plat (6 h): 115.7 x10_4/uL
RBC (6 h): 618.8 x10_4/ul
Ret (6 h): 8.7%
WBC (6 h): 96.2 x10_2/uL
KIDNEY_L (6 h): 0.9 g
KIDNEY_R (6 h): 1 g
KIDNEY_TOTAL (6 h): 1.9 g
LIVER (6 h): 9 g
A/G (6 h): 1.3
ALP (6 h): 1530.2 IU/L
ALT (6 h): 38.6 IU/L
AST (6 h): 71.6 IU/L
BUN (6 h): 11.2 mg/dL
CRE (6 h): 0.2 mg/dL
Ca (6 h): 10.6 mg/dL
Cl (6 h): 105.8 meq/L
DBIL (6 h): 0.006 mg/dL
GLC (6 h): 180 mg/dL
IP (6 h): 9.3 mg/dL
K (6 h): 4.3 meq/L
LDH (6 h): 179.8 IU/L
Na (6 h): 141.4 meq/L
PL (6 h): 140.6 mg/dL
RALB (6 h): 3 g/dL
TBIL (6 h): 0.02 mg/dL
TC (6 h): 75.6 mg/dL
TG (6 h): 62.6 mg/dL
TP (6 h): 5.3 g/dL
gamma-GTP (6 h): 1 IU/L
TERMINAL_BW (9 h): 200.8 g
APTT (9 h): 22.6 s
Bas (9 h): 0%
Eos (9 h): 1%
Fbg (9 h): 314.5 mg/dL
Hb (9 h): 12.9 g/dL
Ht (9 h): 37.8%
Lym (9 h): 75.5%
MCH (9 h): 21.4 pg
MCHC (9 h): 34.3%
MCV (9 h): 62.6 fL
Mono (9 h): 2%
Neu (9 h): 20.5%
PT (9 h): 15.7 s
Plat (9 h): 110.7 x10_4/uL
RBC (9 h): 605.5 x10_4/ul
Ret (9 h): 8.4%
WBC (9 h): 86.5 x10_2/uL
KIDNEY_L (9 h): 0.9 g
KIDNEY_R (9 h): 0.9 g
KIDNEY_TOTAL (9 h): 1.9 g
LIVER (9 h): 8.5 g
A/G (9 h): 1.2
ALP (9 h): 1450.5 IU/L
ALT (9 h): 41.2 IU/L
AST (9 h): 76.5 IU/L
BUN (9 h): 10.5 mg/dL
CRE (9 h): 0.2 mg/dL
Ca (9 h): 10.3 mg/dL
Cl (9 h): 107 meq/L
DBIL (9 h): 0.005 mg/dL
GLC (9 h): 178.2 mg/dL
IP (9 h): 9.8 mg/dL
K (9 h): 4 meq/L
LDH (9 h): 172.2 IU/L
Na (9 h): 141.8 meq/L
PL (9 h): 135 mg/dL
RALB (9 h): 3 g/dL
TBIL (9 h): 0.0175 mg/dL
TC (9 h): 81.8 mg/dL
TG (9 h): 39.8 mg/dL
TP (9 h): 5.5 g/dL
gamma-GTP (9 h): 1.2 IU/L
TERMINAL_BW (24 h): 216 g
APTT (24 h): 21.7 s
Bas (24 h): 0%
Eos (24 h): 1%
Fbg (24 h): 333.2 mg/dL
Hb (24 h): 13.5 g/dL
Ht (24 h): 39.1%
Lym (24 h): 77.8%
MCH (24 h): 21.4 pg
MCHC (24 h): 34.4%
MCV (24 h): 62.3 fL
Mono (24 h): 3%
Neu (24 h): 17.6%
PT (24 h): 16.7 s
Plat (24 h): 124 x10_4/uL
RBC (24 h): 627 x10_4/ul
Ret (24 h): 7.8%
WBC (24 h): 113.7 x10_2/uL
KIDNEY_L (24 h): 1 g
KIDNEY_R (24 h): 1 g
KIDNEY_TOTAL (24 h): 1.9 g
LIVER (24 h): 10.3 g
A/G (24 h): 1.2
ALP (24 h): 1519.2 IU/L
ALT (24 h): 39.8 IU/L
AST (24 h): 76.8 IU/L
BUN (24 h): 17.2 mg/dL
CRE (24 h): 0.2 mg/dL
Ca (24 h): 10.9 mg/dL
Cl (24 h): 107.6 meq/L
DBIL (24 h): 0.002 mg/dL
GLC (24 h): 179.6 mg/dL
IP (24 h): 7.6 mg/dL
K (24 h): 4.4 meq/L
LDH (24 h): 287.6 IU/L
Na (24 h): 142.6 meq/L
PL (24 h): 152.8 mg/dL
RALB (24 h): 3.1 g/dL
TBIL (24 h): 0 mg/dL
TC (24 h): 82.2 mg/dL
TG (24 h): 84.4 mg/dL
TP (24 h): 5.6 g/dL
gamma-GTP (24 h): 1.8 IU/L
